# Where no end group is shown, it is not given here.
# Experiments:
# [1] = target: T1, Human rheumatoid synovial fibroblast MMP-1 (Homo sapiens, UniProt P03956); assay: MMP-1 activity, fluorogenic substrate assay; format: biochemical; settings: 5, 10, 800 and 1000 μM; 8 nM activated enzyme
# T1 construct: endogenous in cells; host or cells: human rheumatoid synovial fibroblasts
# T1 sequence (P03956 100-469): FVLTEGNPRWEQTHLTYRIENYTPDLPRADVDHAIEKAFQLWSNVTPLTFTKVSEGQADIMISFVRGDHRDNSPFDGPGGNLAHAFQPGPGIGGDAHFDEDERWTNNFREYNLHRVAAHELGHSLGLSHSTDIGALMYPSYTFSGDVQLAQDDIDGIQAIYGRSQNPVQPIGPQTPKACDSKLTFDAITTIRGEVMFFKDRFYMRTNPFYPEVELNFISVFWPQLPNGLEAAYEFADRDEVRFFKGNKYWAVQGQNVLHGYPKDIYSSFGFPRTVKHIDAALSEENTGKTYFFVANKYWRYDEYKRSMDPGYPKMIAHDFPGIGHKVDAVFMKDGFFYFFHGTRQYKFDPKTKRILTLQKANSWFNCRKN
# Description: Human rheumatoid synovial fibroblast MMP-1 proenzyme, activated with APMA for 60 minutes at 37° C., was used as an active enzyme. The polypeptide IK34720 (SEQ ID NO: 3) at a concentration of 5 μM. 10 μM 800 μM and 1000 μM was pre-incubated with 8 nM activated enzyme in modified MOPS buffer pH 7.2 for 60 minutes at 37° C. The reaction was initiated by addition of […] Mca-Pro-Leu-Gly-Leu-Dap-Ala-Arg followed by a 2 hour incubation period. Determination of the amount of Mca-Pro-Leu-Gly formed was read spectrofluorimetrically at 340 nm/400 nm.
# TGFβRII = TGFβRII expression by Western analysis in UV-irradiated dermal fibroblasts; format: cell-based, human; settings: 1-10 μM added immediately following UV; 5 h post UV treatment; primary fibroblasts
# Description: Human skin dermal fibroblasts were cultured from keratome biopsies of healthy adult human skin. Cells were between passages three and six. For UV irradiation, subconfluent cells were washed once with phosphate-buffered saline (PBS) and irradiated with UV. Immediately following irradiation, negative control (vehicle) or 1 μM, 2.5 μM, 5 μM and 10 μM of IK34720 (“IK” in FIG. 3B, SEQ ID NO: 3) were added to the cell cultures.
# For Western analysis, nuclear extracts were prepared, membrane fractions were prepared and resolved on 8% SDS-polyacrylamide gel electrophoresis, transferred to polyvinylidene difluoride membrane, and reacted with primary antibodies. Blots were visualized and quantified.
# Smad4 = Smad4 expression in UV treated cells (data not shown); format: cell-based
# MMP1 = MMP1 immunohistochemical staining in UV-irradiated human skin explants; format: cell-based
# Description: Human skin (2×human explant tissues) removed at elective surgery was cleaned, dissected and cut into pieces of approx. 5 mm×5 mm. Each piece was placed in a well of a 96 well plate, with individual plates prepared to assess the effects 3 hrs post treatment. Skin was subjected to UV-radiation from solar-simulated UV source for 1.5 h (UVR), or non-irradiation (SHAM), and treated immediately after with a vehicle control, Calcitriol (1 nM) or the polypeptide IK34720 (SEQ ID NO: 3) at concentrations of 50 μM, 250 μM or 500 μM. In FIG. 17, IK50, IK250 and IK500 as μM concentrations refers to 15 μg, 75 μg and 150 μg of IK34720 per 120 μL culture medium/explant, respectively.
# Samples harvested at 3 hrs were fixed, sectioned, immunohistochemically stained for MMP1 and quantified for MMP1 expression, by expressing epidermal area stained for MMP1 as a function of total epidermal area examined.
# [2] = test system: human primary melanocytes; assay: melanin content after UVB, primary melanocytes; format: cell-based; settings: 10 μM for 24 hours prior to 2 kJ/m2 UVB; measured 24 hours later; relative to untreated UVB cells
# Description: In brief, MM1418-C1 lightly pigmented melanoma cells or human primary melanocytes were grown in 24 well culture plates and treated with 10 μM
# RSKAKNPLYRRRRRRRRR (“IK-3”) for 24 hours prior to being exposed to 2 kJ/m2 UVB radiation. Controls (not treated with RSKAKNPLYRRRRRRRRR) labelled “Con” and “UVB”, respectively, were exposed to either 0 or 2 KJ/m2 UVB radiation. Cell groups were returned to the incubator for 24 hours and then the levels of melanin and protein in the cells were measured spectrophotometrically. In each experiment triplicate samples were measured. Data shown in FIG. 19 indicate the average values+SEM (μg melanin/mg cell protein) exposed to 0 or 2 KJ/m2 UVB which had been pre-treated with 0 or 10 μM of RSKAKNPLYRRRRRRRRR 24 hours prior to being exposed to UVB radiation. The t-test (2-tailed) was used to determine statistical significance, *p<0.05, ***p<0.001.
# Skh: hr1 hairless mice = assay: CPD (thymine dimer) immunohistochemistry in UV-irradiated mouse skin; format: in vivo; settings: topical immediately after UVR; IK34720 20, 100 or 200 μg, Calcitriol 11.4 pmol/cm2; 3 hours post-UVR; vs vehicle
# Description: Female Skh: hr1 hairless mice were exposed to solar simulated UV-irradiation as described above at Example 4. Immediately after irradiation mice were treated topically on the dorsal surface also as described in Example 4. Subsequently, skin was fixed at 3 hours post-UVR, and subjected to immuno-histochemical staining using the antibody directed against thymine dimers (CPD) described above at 10 μg/ml. […] In FIG. 9, dark staining in nuclei indicates the presence of thymine dimers (CPD), and the % area stained is presented. Immunohistology was quantified as per Example 4.
# human skin explants = assay: sunburn (apoptotic) cells in UV-irradiated human skin explants; format: cell-based
# Description: Skin explants were cultured irradiated and treated as described above for CPD, and subsequent to treatment were stained and quantified as described for Example 6.
sequence,measurement,setting,value
RSKAKNPLYRRRRRRRRR (not fully specified (some residues)) [IK34720],MMP-1 activity,[1],inhibits MMP-1 activation in a dose dependent manner
same,TGFβRII expression in UV treated cells,TGFβRII,restored TGFβRII expression
same,Smad4 expression in UV treated cells,Smad4,restored Smad4 expression
same,percentage of MMP1 positive cells,"MMP1; 500 μM, 3 hrs post irradiation",statistically significantly reduced
same,cells staining for MMP-1,"MMP1; 3 hrs post irradiation/treatment, Calcitriol 1 nM, IK34720 50, 250 or 500 μM",fewer stained cells
same,melanin content,[2],significantly decreased melanin content
same,CPD formation in the skin (% area stained),Skh: hr1 hairless mice,inhibits CPD formation
same,number of apoptotic cells,"human skin explants; 50 μM and 250 μM, 3 hrs and 24 hrs post UV-irradiation",reduces the number of apoptotic cells
same,number of apoptotic cells,"human skin explants; 80 μM, 400 μM and 800 μM, following UV-irradiation, data not shown",statistically significantly reduces the number of apoptotic cells
same,number of apoptotic cells,"human skin explants; 500 μM, 3 hrs and 24 hrs post UV-irradiation",statistically significantly reduces the number of apoptotic cells

# Reference: patent US20250262139A1, “POLYPEPTIDES AND METHODS FOR IMPROVING SKIN CONDITIONS” (INTERK PEPTIDE THERAPEUTICS LIMITED, priority 2020, published 2025)
